The target of data set [1] is T1, CYP2E1 (Rattus norvegicus, UniProt P05182). As to the kind of experiment: Pharmacokinetics of probe substrate CLX and 6-OH-CLX in rats after 21 days of SM pretreatment. Conditions: single oral 30 mg/kg CLX, solvent control group.
Method: (§1) SD rats were randomly divided into two groups (six rats in each group). One group was orally administered 4% HP-β-CD (w/v) solution as a solvent control group and the other group was orally administered SM 45 mg/kg (dissolved in 4% HP-β-CD (w/v)) for 21 consecutive days. On the 22nd day, rats in the two groups were given a single oral dose of CLX 30 mg/kg (suspended in 0.5% CMC-Na solution (w/v)). […] After the final blood collection, rats were euthanized by intraperitoneal injection of 50% urethane.
(§2) The concentrations of APAP and its metabolites in rat plasma and the concentrations of CLX and 6-OH-CLX in rat plasma, and the phase I metabolic system in vitro were determined by HPLC—MS/MS. […] Briefly, a 50 μL plasma sample was vortexed with 10 μL of the internal standard solution, and 150 μL pf methanol was then added to the mixture and shaken for 3 min to precipitate the protein. The sample was centrifuged at 14,000 rpm for 5 min, and 10 µL of the supernatant was analyzed by LC–MS/MS. […] The noncompartmental analysis using Phoenix WinNonlin software (version 6.3, Pharsight Corp, Mountain View, CA, USA) was used to calculate the pharmacokinetic parameters of CLX and 6-OH-CLX.
A further data set concerns APAP-induced ALI mice. As to the kind of experiment: APAP-induced ALI in mice: serum ALT/AST, liver reduced GSH, H&E histology. Type of data set: in vivo, mouse. The note with it: APAP 350 mg/kg i.p., 24 h. As for the experimental part: The levels of ALT and AST in mouse serum and reduced GSH in mouse livers were measured by West China Frontier Pharmatech (Chengdu, China).
The right lower lobe of the mouse liver was fixed with 4% paraformaldehyde for 24 h in preparation for H&E staining. The embedding and slicing processes for H&E staining were performed by Ao’Chuang Biotechnology Co., Ltd. (Chengdu, China). Images were acquired with a phase contrast microscope with 20× and 40× objective lenses. The scale bars were added with ImageJ software.

Data set [2] deals with Cyp2e1. As to the kind of experiment: Cyp2e1 mRNA and protein expression in mouse liver (RT-qPCR, Western blot). The format is in vivo. The note with it: mice, single i.p. APAP 350 mg/kg, 24 h. The text has this: Antibodies against CYP2E1 were kindly provided by Proteintech Biotechnology.
On the technique in general: Real-time PCR tracks product formation cycle by cycle.

Data set [3] has as its target CYP2E1 (Homo sapiens, UniProt P05181).
Method: (§3) The probe substrate CLX, 50 mM potassium phosphate buffer (KPI, pH 7.4), and 0.25 mg/mL HLMS or RLMs were mixed and then an NADPH-regenerating system (1 mM β-NADP, 5 mM D-glucose-6-phosphate, 1 U/mL glucose-6-phosphate dehydrogenase, and 5 mM MgCl2) were added to initiate reaction. […] HLMs or RLMs were incubated with CLX at 37 °C for 30 min. At the end of the incubation, 100 µL of precooled acetonitrile was added to terminate the reaction. After vortexing and centrifugation at 14,000 rpm for 5 min, 50 µL of supernatant mixed with 10 µL of the internal standard GEN was removed, and the sample was analyzed by HPLC–MS/MS.
(§4) Activities were expressed as a percentage of 6-OH-CLX production in the blank control.
(§5) Nonlinear regression analysis in GraphPad was used to calculate Km and Vmax. To determine the inhibitory type of CYP2E1 by SM, the above data were plotted as a Lineweaver–Burk plot.
(§6) Inhibition data were plotted as Dixon plots, and the inhibition constant (Ki) was calculated from the regression equation.
In data set [4] the target is T1, CYP2E1. The note with it: microsomes.
Method: as §3, §4, §5, §6
The target of data set [5] is T1, CYP2E1. Conditions: in vivo.
Method: as §1, §2

This is an account of results in PMC9784215, “Silymarin Protects against Acute Liver Injury Induced by Acetaminophen by Downregulating the Expression and Activity of the CYP2E1 Enzyme” (Molecules, 2022).

Chain of CYP2E1 (Homo sapiens, UniProt P05181) (P05181 whole entry): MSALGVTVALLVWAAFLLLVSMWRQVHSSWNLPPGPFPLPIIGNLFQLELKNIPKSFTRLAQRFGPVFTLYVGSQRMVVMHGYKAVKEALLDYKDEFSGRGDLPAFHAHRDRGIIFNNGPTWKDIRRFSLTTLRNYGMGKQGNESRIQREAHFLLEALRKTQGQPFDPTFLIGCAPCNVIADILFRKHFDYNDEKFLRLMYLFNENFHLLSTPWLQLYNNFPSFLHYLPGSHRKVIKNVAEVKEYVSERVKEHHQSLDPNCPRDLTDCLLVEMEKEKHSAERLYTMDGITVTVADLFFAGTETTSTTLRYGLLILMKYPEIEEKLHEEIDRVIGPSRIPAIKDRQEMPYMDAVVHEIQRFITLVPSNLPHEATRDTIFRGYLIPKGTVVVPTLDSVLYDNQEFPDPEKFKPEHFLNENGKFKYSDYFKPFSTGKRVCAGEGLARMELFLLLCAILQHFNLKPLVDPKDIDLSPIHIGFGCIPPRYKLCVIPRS
T1 sequence (P05182 whole entry): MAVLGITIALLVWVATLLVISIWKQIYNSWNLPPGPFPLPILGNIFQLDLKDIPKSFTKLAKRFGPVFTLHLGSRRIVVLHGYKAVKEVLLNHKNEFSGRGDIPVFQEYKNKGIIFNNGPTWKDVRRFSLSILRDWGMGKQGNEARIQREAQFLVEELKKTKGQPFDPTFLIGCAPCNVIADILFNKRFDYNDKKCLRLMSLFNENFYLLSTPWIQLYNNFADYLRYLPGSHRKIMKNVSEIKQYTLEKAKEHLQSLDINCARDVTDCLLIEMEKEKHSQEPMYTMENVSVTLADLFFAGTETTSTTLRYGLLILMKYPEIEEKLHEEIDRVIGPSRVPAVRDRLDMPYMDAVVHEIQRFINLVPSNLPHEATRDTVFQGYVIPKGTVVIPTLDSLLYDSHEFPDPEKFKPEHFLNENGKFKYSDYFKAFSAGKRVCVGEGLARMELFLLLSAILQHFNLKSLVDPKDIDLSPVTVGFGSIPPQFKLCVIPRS

For `O=c1[nH]c2cc(Cl)c(O)cc2o1` [6-OH-CLX], at CYP2E1 [1], the “AUC0-t of 6-OH-CLX” value is 287.58 ± 106.13 ng·h/mL and the “AUC0-∞ of 6-OH-CLX” value was found to be 325.78 ± 127.17 ng·h/mL.
Regarding `CC(=O)Nc1ccc(O)cc1` [APAP, Acetaminophen], in the data set with APAP-induced ALI mice, the “liver histopathology (H&E), hepatic lobule structure” value is listed as “severely damaged”; the “liver reduced GSH content vs solvent control group” value is “significantly reduced”; the “serum ALT level vs solvent control group” value was “significantly increased”; the “serum AST level vs solvent control group” value is listed as “significantly increased”. The “liver Cyp2e1 mRNA and protein expression vs solvent control group” value in the data set on Cyp2e1 [2] was “significantly upregulated”.
Regarding silymarin, at CYP2E1 [3], the “Km of CLX” value amounted to 1827 ± 318 µM and the “Vmax of CLX” value is listed as 4.56 ± 1.67 nM/h/mg Protein. At CYP2E1 [3] (microsomes), half-maximal inhibition (IC50) required 14.8 µM and the Ki (commonly the equilibrium dissociation constant of an inhibitor or competing ligand from its target) turned out to be 23.2 µM. At CYP2E1 [4], the midpoint of inhibition, the IC50, lay at 26.1 µM and the affinity corresponds to a Ki of 9.49 µM. At CYP2E1 [5], the “CL of CLX” value was found to be 4.5353 ± 0.6998 mL/min/kg, the “Vd of CLX” value is 1.56626 ± 0.67478 L/kg, the “t1/2 of CLX” value is 3.92 ± 1.25 h and the “tmax of CLX” value was 0.58 ± 0.30 h.
